Reference: ChEMBL document CHEMBL1201862, “PubChem BioAssay data set” (2004)
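Grown in 96-well plates, cells were treated for 48 hours with each compound at five concentrations. Insufficient inhibition: endpoint recorded as highest concentration tested. GI50 is the concentration that inhibits growth by half.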 Active and inactive are the calls of the source. No stated cut-off is given here; in the data, active = GI50 up to about 1.1 µM and inactive = higher.

Tests used:
Assay in all cases: NCI tumour cell line growth inhibition, 48 h
RXF 393 = test system: RXF 393
NCI-H460 = test system: NCI-H460
UO-31 = test system: UO-31
UACC-62 = test system: UACC-62
OVCAR-4 = test system: OVCAR-4
SR = test system: SR
M14 = test system: M14
HCT-116 = test system: HCT-116
MDA-MB-231 = test system: MDA-MB-231
NCI-H522 = test system: NCI-H522
A549 = test system: A549
CCRF-CEM = test system: CCRF-CEM
OVCAR-8 = test system: OVCAR-8
SF-268 = test system: SF-268
NCI-H23 = test system: NCI-H23
NCI-H226 = test system: NCI-H226
UACC-257 = test system: UACC-257
MCF7 = test system: MCF7
COLO 205 = test system: COLO 205
SK-MEL-28 = test system: SK-MEL-28

In the case of `CCN1CC2=C(OC(N)=C(C#N)C2c2ccc(Cl)cc2)/C(=C/c2ccc(Cl)cc2)C1` (stereo not given), the GI50 (RXF 393) is reported as 12.3 µM (inactive), the GI50 (NCI-H460) is reported as 14 µM (inactive) and the GI50 (UO-31) is reported as 36.4 µM (inactive). For the same compound, the GI50 (UACC-62) was 26.9 µM (inactive), the GI50 (OVCAR-4) was 32.4 µM (inactive) and the GI50 (SR) was 31.9 µM (inactive). For the same compound, the GI50 (M14) was 21.5 µM (inactive), the GI50 (HCT-116) was 14.1 µM (inactive) and the GI50 (MDA-MB-231) was 16.1 µM (inactive). The GI50 (NCI-H522) was 25.1 µM (inactive), the GI50 (A549) was 14.2 µM (inactive) and the GI50 (CCRF-CEM) was 18.3 µM (inactive). The GI50 (OVCAR-8) was 16.6 µM (inactive), the GI50 (SF-268) was 17.8 µM (inactive) and the GI50 (NCI-H23) was 22.5 µM (inactive). The GI50 (NCI-H226) was 31 µM (inactive), the GI50 (UACC-257) was 28.1 µM (inactive) and the GI50 (MCF7) was 30.5 µM (inactive). The GI50 (COLO 205) was 52.4 µM (inactive) and the GI50 (SK-MEL-28) was 14.9 µM (inactive).
With `CC(=O)c1[nH]c(Nc2ccc(C)cc2)c(C(=S)Nc2ccccc2)c1N` the GI50 (RXF 393) was 13.3 µM (inactive), the GI50 (NCI-H460) was 15.7 µM (inactive) and the GI50 (UO-31) was 13.2 µM (inactive). For the same compound, the GI50 (UACC-62) was 16.2 µM (inactive), the GI50 (OVCAR-4) was 17.5 µM (inactive) and the GI50 (SR) was 22.3 µM (inactive). The GI50 (M14) was 17.1 µM (inactive), the GI50 (HCT-116) was 16.7 µM (inactive) and the GI50 (MDA-MB-231) was 16.5 µM (inactive). The GI50 (NCI-H522) was 15.6 µM (inactive), the GI50 (A549) was 14.9 µM (inactive) and the GI50 (CCRF-CEM) was 21 µM (inactive). The GI50 (OVCAR-8) was 18.1 µM (inactive), the GI50 (SF-268) was 14.5 µM (inactive) and the GI50 (NCI-H23) was 17.8 µM (inactive). For the same compound, the GI50 (NCI-H226) was 14.4 µM (inactive), the GI50 (UACC-257) was 18.5 µM (inactive) and the GI50 (MCF7) was 15.7 µM (inactive). The GI50 (COLO 205) was 23.9 µM (inactive) and the GI50 (SK-MEL-28) was 19.5 µM (inactive).
In the case of `CCOP(=O)(OCC)/C(C#N)=C\c1cccc2ccccc12`, the GI50 (RXF 393) is reported as 31.6 µM (inactive), the GI50 (NCI-H460) is reported as > 91.8 µM (inactive) and the GI50 (UO-31) is reported as 56.9 µM (inactive). The GI50 (UACC-62) was 35.5 µM (inactive), the GI50 (OVCAR-4) was > 75.3 µM (inactive) and the GI50 (SR) was 31.8 µM (inactive). The GI50 (M14) was 80 µM (inactive), the GI50 (HCT-116) was 46 µM (inactive) and the GI50 (MDA-MB-231) was 40.6 µM (inactive). For the same compound, the GI50 (NCI-H522) was > 88.1 µM (inactive), the GI50 (A549) was > 100 µM (inactive) and the GI50 (CCRF-CEM) was 30.1 µM (inactive). For the same compound, the GI50 (OVCAR-8) was > 45.7 µM (inactive), the GI50 (SF-268) was 21.4 µM (inactive) and the GI50 (NCI-H23) was 78.3 µM (inactive). The GI50 (NCI-H226) was 32.4 µM (inactive), the GI50 (UACC-257) was 71.3 µM (inactive) and the GI50 (MCF7) was 39.9 µM (inactive). For the same compound, the GI50 (COLO 205) was 91.8 µM (inactive) and the GI50 (SK-MEL-28) was 28.2 µM (inactive).
For `O=C(O)c1nc2cc(Cl)ccc2[nH]c1=O`, the GI50 (RXF 393) was > 100 µM (inactive), the GI50 (NCI-H460) was > 100 µM (inactive) and the GI50 (UO-31) was > 100 µM (inactive). For the same compound, the GI50 (UACC-62) was > 100 µM (inactive), the GI50 (OVCAR-4) was > 100 µM (inactive) and the GI50 (SR) was > 100 µM (inactive). The GI50 (M14) was > 100 µM (inactive), the GI50 (HCT-116) was > 100 µM (inactive) and the GI50 (MDA-MB-231) was > 100 µM (inactive). The GI50 (NCI-H522) was > 100 µM (inactive), the GI50 (A549) was > 100 µM (inactive) and the GI50 (CCRF-CEM) was > 100 µM (inactive). The GI50 (OVCAR-8) was > 100 µM (inactive), the GI50 (SF-268) was > 100 µM (inactive) and the GI50 (NCI-H23) was > 100 µM (inactive). For the same compound, the GI50 (NCI-H226) was > 100 µM (inactive), the GI50 (UACC-257) was > 100 µM (inactive) and the GI50 (MCF7) was > 100 µM (inactive). For the same compound, the GI50 (COLO 205) was > 100 µM (inactive) and the GI50 (SK-MEL-28) was > 100 µM (inactive).
`Oc1c2ccccc2c2c3c(cccc13)N=N2` [SP-600125] was tested, and the GI50 (RXF 393) was 20.7 µM (inactive), the GI50 (NCI-H460) was 9.86 µM (inactive) and the GI50 (UO-31) was 10.5 µM (inactive). For the same compound, the GI50 (UACC-62) was 14.6 µM (inactive), the GI50 (OVCAR-4) was 31.9 µM (inactive) and the GI50 (SR) was 13.1 µM (inactive). The GI50 (M14) was > 100 µM (inactive), the GI50 (HCT-116) was 44.6 µM (inactive) and the GI50 (MDA-MB-231) was 65.3 µM (inactive). For the same compound, the GI50 (NCI-H522) was 12.2 µM (inactive), the GI50 (A549) was 14.9 µM (inactive) and the GI50 (CCRF-CEM) was 16.1 µM (inactive). For the same compound, the GI50 (OVCAR-8) was 22 µM (inactive), the GI50 (SF-268) was 18.5 µM (inactive) and the GI50 (NCI-H23) was 23.8 µM (inactive). The GI50 (NCI-H226) was 22.9 µM (inactive), the GI50 (UACC-257) was 29.5 µM (inactive) and the GI50 (MCF7) was 49 µM (inactive). The GI50 (COLO 205) was 19.5 µM (inactive) and the GI50 (SK-MEL-28) was 37.6 µM (inactive).
`O=C(/C=C/c1ccc(OCCSCCCCCCCCCCSCCOc2ccc(/C=C/C(=O)c3ccc(Cl)cc3)cc2)cc1)c1ccc(Cl)cc1` was tested, and the GI50 (RXF 393) was 43.6 µM (inactive), the GI50 (NCI-H460) was > 100 µM (inactive) and the GI50 (UO-31) was > 100 µM (inactive). The GI50 (UACC-62) was > 80.9 µM (inactive), the GI50 (OVCAR-4) was > 100 µM (inactive) and the GI50 (SR) was > 92.7 µM (inactive). For the same compound, the GI50 (M14) was > 100 µM (inactive), the GI50 (HCT-116) was > 100 µM (inactive) and the GI50 (MDA-MB-231) was > 100 µM (inactive). The GI50 (NCI-H522) was > 89.3 µM (inactive), the GI50 (A549) was > 100 µM (inactive) and the GI50 (CCRF-CEM) was > 100 µM (inactive). For the same compound, the GI50 (OVCAR-8) was > 100 µM (inactive), the GI50 (SF-268) was 76 µM (inactive) and the GI50 (NCI-H23) was > 94.6 µM (inactive). The GI50 (NCI-H226) was > 76.2 µM (inactive), the GI50 (UACC-257) was > 100 µM (inactive) and the GI50 (MCF7) was > 100 µM (inactive). For the same compound, the GI50 (COLO 205) was > 100 µM (inactive) and the GI50 (SK-MEL-28) was > 100 µM (inactive).
`CCOC(=O)CC[C@H](NC(=O)[C@H](N)Cc1ccc(N(CCCl)CCCl)cc1)C(=O)OCC` was tested, and the GI50 (RXF 393) was 14.2 µM (inactive), the GI50 (NCI-H460) was 2.61 µM (inactive) and the GI50 (UO-31) was 14.1 µM (inactive). The GI50 (UACC-62) was 2.68 µM (inactive), the GI50 (OVCAR-4) was 13.1 µM (inactive) and the GI50 (SR) was 1.91 µM (inactive). For the same compound, the GI50 (M14) was 8.65 µM (inactive), the GI50 (HCT-116) was 22.2 µM (inactive) and the GI50 (MDA-MB-231) was 29.4 µM (inactive). The GI50 (NCI-H522) was 4.53 µM (inactive), the GI50 (A549) was 35.4 µM (inactive) and the GI50 (CCRF-CEM) was 1.14 µM (inactive). For the same compound, the GI50 (OVCAR-8) was 10.6 µM (inactive), the GI50 (SF-268) was 1.43 µM (inactive) and the GI50 (NCI-H23) was 3.08 µM (inactive). For the same compound, the GI50 (NCI-H226) was > 34.7 µM (inactive), the GI50 (UACC-257) was 11 µM (inactive) and the GI50 (MCF7) was 20.6 µM (inactive). For the same compound, the GI50 (COLO 205) was 20.7 µM (inactive) and the GI50 (SK-MEL-28) was 21.6 µM (inactive).
`CC12ON(P(=O)(c3ccccc3)c3ccccc3)C(C)(c3ccccc31)c1ccccc12` was tested, and the GI50 (RXF 393) was 81.7 µM (inactive), the GI50 (NCI-H460) was 67.5 µM (inactive) and the GI50 (UO-31) was > 100 µM (inactive). The GI50 (UACC-62) was > 100 µM (inactive), the GI50 (OVCAR-4) was 21.5 µM (inactive) and the GI50 (SR) was 46.1 µM (inactive). The GI50 (M14) was > 100 µM (inactive), the GI50 (HCT-116) was > 100 µM (inactive) and the GI50 (MDA-MB-231) was > 100 µM (inactive). The GI50 (NCI-H522) was > 100 µM (inactive), the GI50 (A549) was > 100 µM (inactive) and the GI50 (CCRF-CEM) was 46.2 µM (inactive). The GI50 (OVCAR-8) was > 100 µM (inactive), the GI50 (SF-268) was > 100 µM (inactive) and the GI50 (NCI-H23) was > 100 µM (inactive). For the same compound, the GI50 (NCI-H226) was > 100 µM (inactive), the GI50 (UACC-257) was > 100 µM (inactive) and the GI50 (MCF7) was 0.675 µM (active). For the same compound, the GI50 (COLO 205) was > 100 µM (inactive) and the GI50 (SK-MEL-28) was > 100 µM (inactive).
